From patent US20260234549A1, “NON-INVASIVE TUNING OF PROTEIN ALIGNMENT” (NEW YORK UNIVERSITY IN ABU DHABI CORPORATION, priority 2023, published 2026)

Assays:
[1] = system: fibroblasts cultured on matrix with aligned collagen fibrils (30° condition); assay: αSMA gene expression (RT-qPCR) of fibroblasts on aligned collagen matrix treated with inhibitors; type: cell-based, human; details: 3 days; 1 μM verteporfin, 10 μM blebbistatin, 20 μM Y-27632, 2 μM SB-431542; 30° aligned matrix; normalized to fibroblasts
Procedure: Quantitative gene expression analysis: Gene expression analysis for fibroblast differentiation was performed using an established protocol. Briefly, TRIzol (Thermo Fisher Scientific, Dreieich, Germany) was used to extract total RNA. The obtained RNA was converted into complementary DNA (cDNA) using a high-capacity cDNA reverse transcription kit (Applied Biosystems, Waltham, USA). The concentration and the ratio of absorbance at 260 nm and 280 nm of cDNA were quantified using a Nanodrop (Thermo Fisher Scientific, Dreieich, Germany) prior to performing gene expression analysis. Ribosomal protein S26 (RPS26) was used as a reference gene. […] The primer sequences are listed in Table 1. qPCR was performed using SYBR Green PCR Master Mix (Applied Biosystems, Waltham, USA). The qPCR procedure was set as follows: denaturation for 5 min at 95° C.; 45 cycles of denaturation (95° C., 15 s), annealing under primer-specific conditions (30 s) and target gene-specific extension (30 s at 72° C.). The fluorescence signal was measured for 20 s at 72° C. To confirm the specificity of the PCR products, melting curve analysis was performed at the end of each run. Experiments were performed in 4 replicates. Treatment with inhibitors: Fibroblasts cultured onto matrix reconstituted on inclined surfaces with an angle of 30° were treated with 1 μM verteporfin (YAP inhibitor; Sigma-Aldrich, Darmstadt, Germany), 10 μM blebbistatin (myosin inhibitor; Tocris, Bristol, United Kingdom), 20 μM Y-27632 (Rho-associated kinase (ROCK) inhibitor; Tocris, Bristol, United Kingdom) and 2 μM SB-431542 (TGF-31 receptor kinase inhibitor; Sigma-Aldrich, Darmstadt, Germany) for 3 days. After 3 days of treatment, RNA was extracted for the study of αSMA expression using qPCR, as stated in the quantitative gene analysis section. Experiments were performed in 6 replicates.

[2] = system: fibroblasts cultured on matrix with aligned collagen fibrils (30° condition); assay: Live/dead assay (DRAQ7, flow cytometry) of inhibitor-treated fibroblasts on aligned matrix; type: cell-based; details: 3 days; 1 μM verteporfin, 10 μM blebbistatin, 20 μM Y-27632, 2 μM SB-431542; 30° aligned matrix
Procedure: Treatment with inhibitors: Fibroblasts cultured onto matrix reconstituted on inclined surfaces with an angle of 30° were treated with 1 μM verteporfin (YAP inhibitor; Sigma-Aldrich, Darmstadt, Germany), 10 μM blebbistatin (myosin inhibitor; Tocris, Bristol, United Kingdom), 20 μM Y-27632 (Rho-associated kinase (ROCK) inhibitor; Tocris, Bristol, United Kingdom) and 2 μM SB-431542 (TGF-31 receptor kinase inhibitor; Sigma-Aldrich, Darmstadt, Germany) for 3 days. After 3 days of treatment, RNA was extracted for the study of αSMA expression using qPCR, as stated in the quantitative gene analysis section. Experiments were performed in 6 replicates.
Quantitative analysis of cell number and dead cells: Collagen matrices were digested using 2 mg/mL type IV collagenase (Thermo Fisher Scientific, Dreieich, Germany) for 15 min under standard cell culture conditions. Afterwards, cells were stained with DRAQ7 (dead cell staining dye; Biolegend, San Diego, USA) for 10 min on ice. Cells were analyzed using an Attune NxT Flow Cytometer equipped with an autosampler (Thermo Fisher Scientific, Dreieich, Germany). […] The percentage of dead cells was quantified by counting the number of cells that were positive for DRAQ7. At least 20,000 cells were analyzed per condition and replicate. […]

Row | SMILES | αSMA gene expression [1] | cell death (percentage of dead cells) [2]
1 | NC(=O)c1ccc(-c2nc(-c3ccc4c(c3)OCO4)c(-c3ccccn3)[nH]2)cc1 [SB-431542] | significantly reduced | –
2 | C[C@@H](N)[C@H]1CC[C@H](C(=O)Nc2ccncc2)CC1 [Y-27632] | significantly reduced | –
3 | Cc1ccc2c(c1)C(=O)C1(O)CCN(c3ccccc3)C1=N2 (stereo not shown) [blebbistatin] | significantly reduced | without harming cells
